The assay addresses T1, Cm-AGA (Catenovulum maritimum, UniProt A0A0J8H064).
T1 construct: gene XM47_01860
T1 sequence (A0A0J8H064 27-1466): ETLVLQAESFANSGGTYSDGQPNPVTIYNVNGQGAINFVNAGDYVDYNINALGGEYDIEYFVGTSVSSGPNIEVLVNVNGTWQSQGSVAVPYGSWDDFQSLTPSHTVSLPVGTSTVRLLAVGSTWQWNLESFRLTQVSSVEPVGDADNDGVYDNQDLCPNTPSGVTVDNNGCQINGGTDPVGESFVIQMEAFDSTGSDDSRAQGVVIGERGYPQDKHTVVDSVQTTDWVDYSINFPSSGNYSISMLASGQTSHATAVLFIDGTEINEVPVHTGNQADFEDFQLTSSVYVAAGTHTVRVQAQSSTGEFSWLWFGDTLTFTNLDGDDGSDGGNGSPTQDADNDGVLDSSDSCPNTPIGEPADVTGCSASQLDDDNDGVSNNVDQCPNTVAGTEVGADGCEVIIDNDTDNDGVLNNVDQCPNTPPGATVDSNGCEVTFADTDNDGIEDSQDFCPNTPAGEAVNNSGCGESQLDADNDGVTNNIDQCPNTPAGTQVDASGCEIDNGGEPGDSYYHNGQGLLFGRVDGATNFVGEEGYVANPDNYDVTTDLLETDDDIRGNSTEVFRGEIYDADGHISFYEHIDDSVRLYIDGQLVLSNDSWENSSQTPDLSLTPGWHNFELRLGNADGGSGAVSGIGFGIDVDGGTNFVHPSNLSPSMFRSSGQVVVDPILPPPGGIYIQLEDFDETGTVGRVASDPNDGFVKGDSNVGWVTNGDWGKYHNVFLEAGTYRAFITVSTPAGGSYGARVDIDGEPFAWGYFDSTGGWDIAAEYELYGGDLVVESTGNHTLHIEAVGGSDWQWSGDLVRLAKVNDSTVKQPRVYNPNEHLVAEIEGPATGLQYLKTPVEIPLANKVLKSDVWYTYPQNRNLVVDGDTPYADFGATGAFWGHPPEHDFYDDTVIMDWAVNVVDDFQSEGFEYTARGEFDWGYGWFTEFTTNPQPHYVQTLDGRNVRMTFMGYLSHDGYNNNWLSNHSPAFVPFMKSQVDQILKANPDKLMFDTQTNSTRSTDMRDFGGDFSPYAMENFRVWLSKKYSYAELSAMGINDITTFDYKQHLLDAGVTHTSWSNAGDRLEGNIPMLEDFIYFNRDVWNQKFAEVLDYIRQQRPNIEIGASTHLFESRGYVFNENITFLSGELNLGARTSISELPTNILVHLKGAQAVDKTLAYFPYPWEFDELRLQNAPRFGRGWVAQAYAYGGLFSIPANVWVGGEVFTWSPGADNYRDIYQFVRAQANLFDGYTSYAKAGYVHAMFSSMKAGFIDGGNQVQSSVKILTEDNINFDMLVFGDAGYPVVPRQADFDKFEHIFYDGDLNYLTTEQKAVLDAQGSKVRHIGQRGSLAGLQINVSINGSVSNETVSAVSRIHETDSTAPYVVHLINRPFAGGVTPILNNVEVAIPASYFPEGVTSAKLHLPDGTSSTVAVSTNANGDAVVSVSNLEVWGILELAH
Kind of assay: HPAEC-PAD product analysis. The settings on record: pH not stated for this reaction (in water); 35 °C, 24 h; 5 mg/mL stock. It counts as biochemical.

Consider `OC[C@H]1O[C@@H](O[C@H]2[C@H]3OC[C@@H]2O[C@@H](O[C@H]2[C@@H](O)[C@@H](CO)O[C@@H](O[C@H]4[C@H]5OC[C@@H]4O[C@@H](O[C@H]4[C@@H](O)[C@@H](CO)OC(O)[C@@H]4O)[C@H]5O)[C@@H]2O)[C@H]3O)[C@H](O)[C@@H](O[C@@H]2O[C@H]3CO[C@@H]([C@@H]2O)[C@@H]3O)[C@H]1O` (stereo partly shown) [NA6, neoagarohexaose], for which the HPAEC-PAD product analysis entry is reported as “the products of Cm-AGA-mediated NA6 hydrolysis were relatively complex (Figure 8D)”.

The record behind these values is publication PMC11311870, “Catalytic Mode and Product Specificity of an α-Agarase Reveal Its Direct Catalysis for the Production of Agarooligosaccharides” (Foods, 2024).
